Source: US8809325B2, “Benzyl-oxathiazine derivatives substituted with adamantane and noradamantane, medicaments containing said compounds and use thereof” (SANOFI, priority 2011, dated 2014)

Target: human 11β-HSD1 microsome fraction (Homo sapiens, UniProt P28845)
Assay: Enzymatic 11beta-HSD1 test (SPA-based detection)
Type: biochemical
Settings: human 11β-HSD1 microsomes, [1,2-3H]-cortisone, NADPH, 37° C., 1 hour
Procedure: Enzymatic 11beta-HSD1 Test:
To measure the activity of the compounds, an SPA-based detection method (Solly et al. 2005) was employed. First of all, 20 μl of the human 11β-HSD1 microsome fraction (0.2 μg of protein), prepared in 50 mM HEPES, 0.1% BSA (w/v), were applied to a plate with 384 wells. The test compounds (0.09 μl) were applied to the assay plate in 100% DMSO. The reaction was started by addition of 20 μl of [1,2-^3H]-cortisone (0.1 μCi/[…]) in assay buffer comprising 25 mM HEPES, 100 mM KCl, 5 mM NaCl, 2 mM MgCl2 and 0.25 mM NADPH. The plate was agitated at 37° C. for 1 hour. At the same time, a stop solution comprising 20 mg/ml SPA-PVT beads, 1.6 mg/ml monoclonal cortisol antibody and 0.01 mM SSR110887 (inhibitor from the Biovitrium patent) in 50 mM HEPES, 1 M NaCl and 1 M KCl was stirred at room temperature. To stop the reaction, 25 μl of the stop solution were added to each well. The plate was agitated gently at room temperature for 1 further hour and then centrifuged at 500 gav for 1 minute, in order that the SPA beads could settle out. The plate was then read in a Wallac-1450-Microbeta unit with a standard SPA program (counting time 1 min/well). The comparative compound was glycyrrhetinic acid.
Protein and radioactive substrate were dispensed with a Biomek FX unit (Beckman Coulter) for handling liquids. […]

Chain of human 11β-HSD1 microsome fraction (P28845 whole entry): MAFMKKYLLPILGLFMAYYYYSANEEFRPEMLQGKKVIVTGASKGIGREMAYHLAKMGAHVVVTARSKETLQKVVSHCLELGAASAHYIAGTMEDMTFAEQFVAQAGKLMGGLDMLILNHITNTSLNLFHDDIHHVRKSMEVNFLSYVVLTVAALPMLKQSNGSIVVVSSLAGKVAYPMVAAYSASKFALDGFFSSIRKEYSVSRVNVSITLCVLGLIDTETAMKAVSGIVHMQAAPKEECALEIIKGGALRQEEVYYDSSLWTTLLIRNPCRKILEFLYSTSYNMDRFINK

IC50: 3 nM
SMILES: CCN1CC(c2ccc(C[C@@H]3C(C)(C)OC(NC45C[C@@H]6C[C@@H](C[C@H]4C6)C5)=NS3(=O)=O)c(F)c2)C1 [Example 6, {(R)-5-[4-(1-Ethyl-azetidin-3-yl)-2-fluoro-benzyl]-6,6-dimethyl-4,4-dioxo-5,6-dihydro-4H-4lambda6-[1,4,3]oxathiazin-2-yl}-(2R,3aS,5S,6aS)-hexahydro-2,5-methano-pentalen-3a-yl-amine]
